Measurements as given in US6482824B1, “Use of n-substituted (3,6-dihydro)-2h-1,2-oxazine derivatives as selective mglur1 antagonists” (Eli Lilly and Company, priority 1998, dated 2002).

Assay: ability of test compounds to treat migraine (as described in U.S. Pat. No. 5,817,671, U.S. Pat. No. 5,792,763 and J. Neurosci. Methods 1998, 81, 19-24)
Details: in vivo

## CCOc1ccc(C2ON(S(=O)(=O)c3ccc(C(=O)NC)cc3)C(C)C=C2C)cc1 (stereo not shown) [Example 5, 3,6-Dihydro-3,5-dimethyl-6-(4-ethoxyphenyl)-2-(4-methylcarbamoylbenzenesulphonyl)-2H-1,2-oxazine]
  effectiveness in treatment of migraine: particularly effective
